Experimental data taken from patent US7947307B2, “Methods and compositions for imaging” (Mount Sinai School of Medicine of New York University, priority 2004, dated 2011).
Read-outs that look alike come from different tables or passages of the source.

Legend:
[1] = cited from earlier work
[2] = cited from earlier work; remark: listed apart in the source
[3] = cited from earlier work; remark: listed apart in the source
[4] = system: elicited peritoneal macrophages isolated from apoE-/- mice; experiment: Cholesterol efflux assay in cholesterol-loaded elicited peritoneal macrophages; type: cell-based, mouse; settings: 1.5 μM
Protocol: Cholesterol efflux assays. Human apo A-I was prepared as described before (25). Low density lipoprotein (LDL, 1.019<density<1.063 g/mL) and subfraction 3 of high density lipoprotein (HDL3, 1.125<density<1.21 g/mL) were isolated by sequential ultracentrifugation of human plasma. Lipoproteins were extensively dialyzed against phosphate buffered saline (PBS) and protein content measured with a CBQCA Protein Quantitation Kit (Molecular Probes, Eugene, Oreg.). The quality and purity of the lipoprotein preparations was confirmed by SDS-PAGE by the identification of appropriate apolipoproteins. Acetylated LDL (AcLDL) was prepared according to (26). Dulbeco's Modified Eagle medium (DMEM), L-glutamine, Penicillin-Streptomycin solutions, fetal bovine serum (FBS), and PBS were purchased from the Invitrogen Corporation (Carlsbad, Calif.). […]
For measurement of cholesterol efflux, aliquots of the media were collected at 6 and 18 h, and tritium cpm measured by scintillation counting. […] Free and esterified cholesterol content was measured prior to and after efflux under the various treatment conditions. After extraction of lipids, cells were lysed with 0.2 N NaOH and protein content determined by Lowry assay. Total cholesterol and free cholesterol were determined by using kits from Roche Applied Science. Cholesteryl ester content was determined by subtracting free cholesterol from total cholesterol.

[5] = mouse; cited from earlier work
[6] = concentration 1M (values in parentheses)

Compound	Viscosity ([1]; concentration 0.5M)	Viscosity [1, 6]	Osmolality ([2]; concentration 0.5M)	Osmolality [2, 6]	r1, 0.5 T 37° C. [3]	cholesterol efflux to HDL ([4]; [3H]cholesterol-AcLDL loaded macrophages with F-1394, acceptor HDL3 50 μg/mL)	cholesterol efflux to apoA-I ([4]; [3H]cholesterol-AcLDL loaded macrophages with F-1394, acceptor apoA-I 50 μg/mL)	Viscosity ([1]; concentration 0.01M)	Osmolality ([2]; concentration 0.01M)	t1/2 in the circulation [5]
O=C([O-])CN1CCN(CC(=O)[O-])CCN([C@H](CO)[C@H](O)CO)CCN(CC(=O)[O-])CC1.[Gd+3] (racemic) [Gadobutrol, Gd-DO3A-butrol]	1.4 cP	(3.7) cP	0.57 osmol/kg	(1.39) osmol/kg	3.6 mM⁻¹ s⁻¹	–	–	–	–	–
O=C(Nc1ccccc1)c1cc([N+](=O)[O-])ccc1Cl [GW9662]	–	–	–	–	–	did not affect	did not affect	–	–	–
CNC[C@H](O)[C@@H](O)[C@H](O)[C@H](O)CO.CNC[C@H](O)[C@@H](O)[C@H](O)[C@H](O)CO.O=C([O-])CN(CCN(CC(=O)[O-])CC(=O)O)CCN(CC(=O)O)C(COCc1ccccc1)C(=O)[O-].[Gd+3] (centres unmarked) [Gadobenate, Gd-BOPTA]	5.3 cP	–	1.97 osmol/kg	–	4.4 mM⁻¹ s⁻¹	–	–	–	–	–
CNC(=O)CN(CCN(CCN(CC(=O)[O-])CC(=O)NC)CC(=O)[O-])CC(=O)[O-].[Gd+3] [Gadodiamide, Gd-DTPA-BMA]	1.4 cP	(3.9) cP	0.79 osmol/kg	(1.90) osmol/kg	3.9 mM⁻¹ s⁻¹	–	–	–	–	–
CNC[C@H](O)[C@@H](O)[C@H](O)[C@H](O)CO.CNC[C@H](O)[C@@H](O)[C@H](O)[C@H](O)CO.O=C([O-])CN(CCN(CC(=O)[O-])CC(=O)O)CCN(CC(=O)[O-])CC(=O)O.[Gd+3] [Gadopenetate, Gd-DTPA]	2.9 cP	–	1.96 osmol/kg	–	3.8 mM⁻¹ s⁻¹	–	–	–	–	–
O=C([O-])CN1CCN(CC(=O)[O-])CCN(CC(=O)[O-])CCN(CC(=O)[O-])CC1.[Gd+3] [Gadoterate, Gd-DOTA]	2.0 cP	(11.3) cP	1.35 osmol/kg	(4.02) osmol/kg	3.6 mM⁻¹ s⁻¹	–	–	–	–	–
Cc1[nH+]cc(COP(=O)([O-])[O-])c(CN(CCN(CC(=O)[O-])Cc2c(COP(=O)([O-])O)c[nH+]c(C)c2O)CC(=O)[O-])c1O.[Mn].[Na+].[Na+].[Na+] [Mangafodipir, Mn-DPDP]	–	–	–	–	1.9 mM⁻¹ s⁻¹	–	–	0.7 cP	0.29 osmol/kg	–
Gd-DTPA-BMEA [Gadoversetamide]	2.0 cP	–	1.11 osmol/kg	–	4.7 mM⁻¹ s⁻¹	–	–	–	–	–
Gd-HPDO3A [Gadoteridol]	1.3 cP	(3.9) cP	0.63 osmol/kg	(1.91) osmol/kg	3.7 mM⁻¹ s⁻¹	–	–	–	–	–
HDL-apoAI: apolipoprotein AI of HDL	–	–	–	–	–	–	–	–	–	roughly 10 h
